Results as given in ChEMBL document CHEMBL1158622, “Discovery of a series of indan carboxylic acid glycogen phosphorylase inhibitors” (Bioorg Med Chem Lett, 2010).
Several values for one entry are separate records, joined by “and”; a condition that tells them apart may be missing. Equal entries are not always repeated.

Assays:
[1] = biological target: T1, Glycogen phosphorylase, liver form (Homo sapiens, UniProt P06737); assay: Inhibition of human recombinant liver glycogen phosphorylase by multienzyme-coupled reaction
T1 sequence (P06737 whole entry): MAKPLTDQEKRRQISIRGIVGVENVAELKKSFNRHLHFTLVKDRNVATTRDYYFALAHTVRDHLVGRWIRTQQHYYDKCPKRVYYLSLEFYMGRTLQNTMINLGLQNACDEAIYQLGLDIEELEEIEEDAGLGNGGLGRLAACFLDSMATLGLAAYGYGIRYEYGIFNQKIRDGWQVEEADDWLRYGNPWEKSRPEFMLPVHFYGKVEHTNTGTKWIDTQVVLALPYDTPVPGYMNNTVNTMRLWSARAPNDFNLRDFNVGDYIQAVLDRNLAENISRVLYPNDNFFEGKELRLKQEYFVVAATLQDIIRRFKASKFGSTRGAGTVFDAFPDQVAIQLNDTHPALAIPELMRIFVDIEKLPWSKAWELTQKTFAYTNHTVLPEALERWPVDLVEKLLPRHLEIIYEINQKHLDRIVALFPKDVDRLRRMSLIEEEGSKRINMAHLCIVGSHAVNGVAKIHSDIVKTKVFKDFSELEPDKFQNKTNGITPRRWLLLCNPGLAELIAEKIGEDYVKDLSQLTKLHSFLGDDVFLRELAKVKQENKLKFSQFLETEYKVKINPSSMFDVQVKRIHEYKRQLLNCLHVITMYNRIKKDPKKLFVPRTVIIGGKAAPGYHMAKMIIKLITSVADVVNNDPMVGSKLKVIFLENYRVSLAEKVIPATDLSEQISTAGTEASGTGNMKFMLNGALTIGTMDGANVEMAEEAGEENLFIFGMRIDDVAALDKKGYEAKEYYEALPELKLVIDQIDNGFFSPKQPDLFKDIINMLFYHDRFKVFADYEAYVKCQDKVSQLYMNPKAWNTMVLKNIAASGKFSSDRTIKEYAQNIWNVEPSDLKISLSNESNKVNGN

[2] = (§1) Oral bioavailability in rat at 5 mg/kg oral & 2 mg/kg iv dose; assay type: ADME, organism-based; details: in vivo
[3] = Clearance in Wistar rat at […], iv and 11 to 12.2 umol/kg, po; assay type: ADME, organism-based; details: in vivo
CYP3A4 = CYP3A4 (Homo sapiens, UniProt P08684); assay: Inhibition of […] at 10 uM; assay type: ADME
CYP3A4, sequence (P08684 whole entry): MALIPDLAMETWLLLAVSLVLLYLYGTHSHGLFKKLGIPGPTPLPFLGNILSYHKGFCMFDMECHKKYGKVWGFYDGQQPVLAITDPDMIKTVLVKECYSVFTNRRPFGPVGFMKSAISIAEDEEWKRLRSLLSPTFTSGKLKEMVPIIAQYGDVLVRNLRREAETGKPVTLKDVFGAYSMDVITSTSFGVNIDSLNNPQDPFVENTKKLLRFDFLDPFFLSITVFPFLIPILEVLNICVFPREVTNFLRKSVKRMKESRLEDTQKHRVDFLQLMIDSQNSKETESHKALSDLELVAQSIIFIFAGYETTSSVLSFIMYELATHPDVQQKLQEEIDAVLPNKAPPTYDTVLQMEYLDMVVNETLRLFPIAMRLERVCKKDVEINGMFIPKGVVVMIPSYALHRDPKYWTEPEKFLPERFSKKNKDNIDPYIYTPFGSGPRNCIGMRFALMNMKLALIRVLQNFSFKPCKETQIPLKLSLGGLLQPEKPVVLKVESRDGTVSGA

CYP2D6 = CYP2D6 (Homo sapiens, UniProt P10635); assay: Inhibition of CYP2D6 at 10 uM; assay type: ADME
CYP2D6, sequence (P10635 whole entry): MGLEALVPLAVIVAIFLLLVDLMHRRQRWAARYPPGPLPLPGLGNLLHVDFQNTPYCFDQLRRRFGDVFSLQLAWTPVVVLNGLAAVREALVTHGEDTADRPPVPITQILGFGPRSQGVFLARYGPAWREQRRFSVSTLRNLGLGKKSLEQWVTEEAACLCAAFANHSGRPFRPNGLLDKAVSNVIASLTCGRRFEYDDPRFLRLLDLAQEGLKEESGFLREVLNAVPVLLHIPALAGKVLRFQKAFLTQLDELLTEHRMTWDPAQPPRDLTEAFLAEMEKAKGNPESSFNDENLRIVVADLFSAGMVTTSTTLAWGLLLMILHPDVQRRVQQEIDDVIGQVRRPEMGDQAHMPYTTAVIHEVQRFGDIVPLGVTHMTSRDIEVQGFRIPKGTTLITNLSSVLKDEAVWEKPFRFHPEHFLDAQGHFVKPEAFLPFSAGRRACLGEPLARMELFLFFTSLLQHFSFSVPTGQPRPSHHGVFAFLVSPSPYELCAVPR

[4] = Volume of distribution in Wistar rat at […], iv and 11 to 12.2 umol/kg, po; assay type: ADME, organism-based; details: in vivo
Rattus norvegicus [5] = assay: as §1; assay type: ADME, organism-based; details: in vivo
[6] = Oral bioavailability in male Wistar rats at 11 - 12.2 umol/kg oral & 4.3 - 4.9 umol/kg iv dose; assay type: ADME, organism-based; details: rat, in vivo
CYP2C9 = CYP2C9 (Homo sapiens, UniProt P11712); assay: Inhibition of CYP2C9 at 10 uM; assay type: ADME
CYP2C9, sequence (P11712 whole entry): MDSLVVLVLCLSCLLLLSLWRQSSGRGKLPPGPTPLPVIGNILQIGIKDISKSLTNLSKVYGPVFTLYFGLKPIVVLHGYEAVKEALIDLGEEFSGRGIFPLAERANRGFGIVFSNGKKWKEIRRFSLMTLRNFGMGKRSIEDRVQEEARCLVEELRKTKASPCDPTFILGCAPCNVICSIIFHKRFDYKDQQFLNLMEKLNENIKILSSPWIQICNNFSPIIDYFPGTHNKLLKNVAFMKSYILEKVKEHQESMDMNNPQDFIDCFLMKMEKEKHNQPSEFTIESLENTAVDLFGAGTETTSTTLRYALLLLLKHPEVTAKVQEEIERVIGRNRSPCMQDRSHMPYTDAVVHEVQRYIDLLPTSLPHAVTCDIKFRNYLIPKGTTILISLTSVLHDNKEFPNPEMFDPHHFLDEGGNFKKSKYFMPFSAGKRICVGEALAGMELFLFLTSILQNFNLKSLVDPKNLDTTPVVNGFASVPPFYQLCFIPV

[7] = Half life in male Wistar rats at 4.3 - 4.9 umol/kg iv dose (11 - 12.2 umol/kg oral); assay type: ADME, organism-based; details: rat, in vivo
Rattus norvegicus [8] = assay: Antihyperglycemic activity in Zucker fa/fa rat assessed as reduction in glucose level at 17 umol/kg dosed 45 mins prior to glucagon challenge measured after 90 mins; assay type: functional; design: scale not given: the % may be the effect or the level left
CYP1A2 = biological target: T2, CYP1A2 (Homo sapiens, UniProt P05177); assay: Inhibition of CYP1A2 at 10 uM; assay type: ADME
T2 sequence (P05177 whole entry): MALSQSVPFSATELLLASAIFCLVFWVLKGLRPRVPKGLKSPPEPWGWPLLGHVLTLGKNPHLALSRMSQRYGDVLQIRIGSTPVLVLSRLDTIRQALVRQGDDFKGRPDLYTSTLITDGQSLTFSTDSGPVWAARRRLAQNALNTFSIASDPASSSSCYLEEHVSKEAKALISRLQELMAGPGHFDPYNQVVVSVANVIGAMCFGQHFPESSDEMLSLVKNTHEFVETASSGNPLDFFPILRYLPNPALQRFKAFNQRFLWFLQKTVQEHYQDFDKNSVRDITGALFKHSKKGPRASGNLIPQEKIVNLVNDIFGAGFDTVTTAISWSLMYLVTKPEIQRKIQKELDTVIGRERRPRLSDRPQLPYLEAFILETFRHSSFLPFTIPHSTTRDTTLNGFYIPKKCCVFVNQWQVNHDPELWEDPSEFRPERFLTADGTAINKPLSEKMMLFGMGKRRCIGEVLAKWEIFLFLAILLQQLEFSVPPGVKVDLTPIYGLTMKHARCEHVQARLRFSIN

CYP2C19 = CYP2C19 (Homo sapiens, UniProt P33261); assay: Inhibition of CYP2C19 at 10 uM; assay type: ADME
CYP2C19, sequence (P33261 whole entry): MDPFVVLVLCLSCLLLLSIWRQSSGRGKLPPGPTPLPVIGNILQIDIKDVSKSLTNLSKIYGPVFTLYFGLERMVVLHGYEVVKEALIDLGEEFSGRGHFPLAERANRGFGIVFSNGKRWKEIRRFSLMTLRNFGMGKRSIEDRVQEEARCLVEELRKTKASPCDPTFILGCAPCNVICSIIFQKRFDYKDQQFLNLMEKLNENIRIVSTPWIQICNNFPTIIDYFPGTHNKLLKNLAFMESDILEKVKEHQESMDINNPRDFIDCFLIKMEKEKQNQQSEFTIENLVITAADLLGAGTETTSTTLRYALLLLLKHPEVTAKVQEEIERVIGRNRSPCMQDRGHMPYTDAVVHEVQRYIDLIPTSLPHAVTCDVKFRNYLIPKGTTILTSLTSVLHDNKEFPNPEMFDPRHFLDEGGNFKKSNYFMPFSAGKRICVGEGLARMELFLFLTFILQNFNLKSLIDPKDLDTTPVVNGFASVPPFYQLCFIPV

Rattus norvegicus [9] = organism: Rattus norvegicus; assay: Free plasma concentration in rat; assay type: ADME, organism-based; details: in vivo
[10] = biological target: Voltage-gated inwardly rectifying potassium channel KCNH2 (Homo sapiens, UniProt Q12809)
Voltage-gated inwardly rectifying potassium channel KCNH2, sequence (Q12809 whole entry): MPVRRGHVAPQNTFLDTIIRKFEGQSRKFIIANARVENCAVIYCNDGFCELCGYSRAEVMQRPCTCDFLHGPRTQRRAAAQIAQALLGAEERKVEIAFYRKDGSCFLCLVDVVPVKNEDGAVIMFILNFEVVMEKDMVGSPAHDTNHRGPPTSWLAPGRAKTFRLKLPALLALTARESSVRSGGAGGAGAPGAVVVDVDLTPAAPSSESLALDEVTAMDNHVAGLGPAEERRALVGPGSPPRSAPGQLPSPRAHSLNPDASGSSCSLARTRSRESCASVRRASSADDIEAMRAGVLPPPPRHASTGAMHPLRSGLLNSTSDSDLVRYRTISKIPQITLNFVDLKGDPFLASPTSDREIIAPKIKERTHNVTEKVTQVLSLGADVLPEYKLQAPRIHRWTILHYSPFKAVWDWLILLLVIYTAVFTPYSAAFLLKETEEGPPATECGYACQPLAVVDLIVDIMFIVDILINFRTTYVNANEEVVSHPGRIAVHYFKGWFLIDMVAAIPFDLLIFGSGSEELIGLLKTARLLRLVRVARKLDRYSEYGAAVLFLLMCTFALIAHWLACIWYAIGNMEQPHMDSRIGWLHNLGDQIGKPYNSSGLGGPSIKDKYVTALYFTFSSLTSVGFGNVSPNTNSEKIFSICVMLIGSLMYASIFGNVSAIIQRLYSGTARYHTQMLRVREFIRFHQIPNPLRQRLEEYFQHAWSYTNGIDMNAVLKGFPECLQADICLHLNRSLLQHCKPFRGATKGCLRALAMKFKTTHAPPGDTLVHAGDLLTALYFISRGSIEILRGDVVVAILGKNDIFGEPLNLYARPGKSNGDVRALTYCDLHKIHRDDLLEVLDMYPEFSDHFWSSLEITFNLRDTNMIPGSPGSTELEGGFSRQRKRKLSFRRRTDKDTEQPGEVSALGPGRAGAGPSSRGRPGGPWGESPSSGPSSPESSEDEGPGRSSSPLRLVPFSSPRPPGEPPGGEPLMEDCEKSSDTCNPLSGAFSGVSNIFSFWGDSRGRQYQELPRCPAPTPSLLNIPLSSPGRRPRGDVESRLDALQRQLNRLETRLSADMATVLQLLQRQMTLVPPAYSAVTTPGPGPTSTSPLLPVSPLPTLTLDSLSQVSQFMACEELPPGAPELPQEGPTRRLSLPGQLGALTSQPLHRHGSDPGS

Structure (SMILES)	IC50 [1] [nM]	bioavailability [2] [%]	other results
O=C(O)CCO[C@@H]1c2ccccc2C[C@H]1NC(=O)c1cc2sc(Cl)c(Cl)c2[nH]1	59	55	–
O=C(O)CCC[C@@H]1c2ccccc2C[C@H]1NC(=O)c1cc2sc(Cl)c(Cl)c2[nH]1	54	118	–
O=C(O)C[C@H]1c2ccccc2C[C@@H]1NC(=O)c1cc2cc(Cl)sc2[nH]1	1200	–	–
O=C(O)C[C@@H]1c2ccccc2C[C@H]1NC(=O)c1cc2cc(Cl)c(F)cc2[nH]1	76	65	–
O=C(O)CO[C@@H]1c2ccccc2C[C@H]1NC(=O)c1cc2sc(Cl)c(Cl)c2[nH]1	30	5	–
COCC[C@H](C(=O)O)[C@@H]1c2ccccc2C[C@H]1NC(=O)c1cc2sc(Cl)c(Cl)c2[nH]1 [(S)-2-((1R,2R)-2-(2,3-DICHLORO-4H-THIENO[3,2-B]PYRROLE-5-CARBOXAMIDO)-2,3-DIHYDRO-1H-INDEN-1-YL)-4-METHOXYBUTANOIC ACID (DIASTEREOMERIC MIX)]	–	–	clearance [3]: 0.4 mL/min/kg; inhibition at 10 µM (CYP3A4): < 50%; inhibition at 10 µM (CYP2D6): < 50%; Vd [4]: 0.2 L/kg; F (Rattus norvegicus [5]): 150% and 65%; bioavailability [6]: 118%; inhibition at 10 µM (CYP2C9): < 50%; half-life [7]: 420 min; Activity (Rattus norvegicus [8]): 50%; inhibition at 10 µM (CYP1A2): < 50%; inhibition at 10 µM (CYP2C19): < 50%
O=C(O)C[C@@H]1c2ccccc2C[C@H]1NC(=O)c1cc2cc(Cl)ncc2[nH]1	260	11	fraction unbound (Rattus norvegicus [9]): 0.01%
O=C(O)C[C@@H]1c2ccccc2C[C@H]1NC(=O)c1cc2cc(Cl)ccc2[nH]1	57	77	–
O=C(O)C[C@@H]1c2ccccc2C[C@H]1NC(=O)c1cc2cc(Cl)sc2[nH]1	40	41	–
O=C(O)CSC[C@@H]1c2ccccc2C[C@H]1NC(=O)c1cc2sc(Cl)c(Cl)c2[nH]1	40	23	–
O=C(O)C[C@@H]1c2ccccc2C[C@H]1NC(=O)c1cc2cc(F)ccc2[nH]1	–	88	–
O=C(O)C[C@@H]1c2ccccc2C[C@H]1NC(=O)c1cc2cc(Cl)cc(F)c2[nH]1	52	41	–
O=C(O)CC[C@@H]1c2ccccc2C[C@H]1NC(=O)c1cc2sc(Cl)c(Cl)c2[nH]1	56	80	–
O=C(O)C[C@@H]1c2ccccc2C[C@H]1NC(=O)c1cc2sc(Cl)c(Cl)c2[nH]1	18	65	clearance [3]: 0.23 mL/min/kg; inhibition at 10 µM (CYP3A4): < 50%; inhibition at 10 µM (CYP2D6): < 50%; Vd [4]: 0.2 L/kg; IC50 [10]: > 30 µM; bioavailability [6]: 65%; inhibition at 10 µM (CYP2C9): < 50%; half-life [7]: 480 min; inhibition at 10 µM (CYP1A2): < 50%; inhibition at 10 µM (CYP2C19): < 50%
O=C(O)CCCS(=O)(=O)C[C@@H]1c2ccccc2C[C@H]1NC(=O)c1cc2sc(Cl)c(Cl)c2[nH]1	42	2	fraction unbound (Rattus norvegicus [9]): 0.3%
O=C(O)CC(=O)N[C@@H]1c2ccccc2C[C@H]1NC(=O)c1cc2sc(Cl)c(Cl)c2[nH]1	56	2	–
O=C(O)C[C@H]1c2ccccc2C[C@@H]1NC(=O)c1cc2sc(Cl)c(Cl)c2[nH]1	1500	–	–
